Experimental data published in publication PMC5974779, “Prediction of Drug-Induced Hepatotoxicity Using Long-Term Stable Primary Hepatic 3D Spheroid Cultures in Chemically Defined Conditions” (Toxicological Sciences, 2018).
Where two headings read alike, the source gives them in different places. Blank lines part the entries; values can stand above or below the molecule they belong to.

Assays:
[1] = ref DrugBank and Prescribers' Digital Reference database; cited from earlier work
[2] = system: clinical DILI in man; settings: cited from earlier work
[3] = cited from earlier work
[4] = system: PHH 2D sandwich cultures; settings: cited from earlier work; for hepatotoxicity detection in 2D sandwich cultures of PHH: 100× cmax, 24 h, high content imaging; for hepatotoxicity detection in 2D sandwich cultures of PHH / reactive oxygen species levels in 2D sandwich cultures of PHH: ref Xu et al., 2008
[5] = system: PHH micropatterned cocultures with murine embryonic fibroblasts; settings: cited from earlier work
[6] = system: primary human hepatocytes (PHH) 3D spheroids
[7] = system: PHH spheroids (hanging-drop); settings: cited from earlier work
[8] = in vitro; settings: human
[9] = clinical DILI classification in man (POS/NEG)
[10] = clinical DILI classification used in this study, Supplementary Table 2, ref Chen et al., 2011, Guo et al., 2005, O'Brien et al., 2006, Sakatis et al., 2012, Suzuki et al., 2010, Xu et al., 2008
[11] = clinical DILI classification, Supplementary Table 1, ref Chen et al., 2011, Guo et al., 2005, O'Brien et al., 2006, Sakatis et al., 2012, Suzuki et al., 2010, Xu et al., 2008
[12] = therapeutic total cmax, ref PMID
[13] = PHH 2D sandwich cultures, 100x Cmax, ref Xu 2008
[14] = micropatterned cocultures, 100x Cmax, ref Khetani 2013
[15] = PHH hanging-drop spheroids, 100x Cmax, ref Proctor 2017
[16] = FDA drug labeling DILI concern, ref Chen et al., 2011
[17] = FDA drug labeling DILI score, ref Chen et al., 2011
[18] = clinical DILI classification, ref Xu et al. (2008)
[19] = reported pattern of liver damage, Supplementary Table 2, ref literature

SMILES: CNCCc1ccccn1 [Betahistine]
Extent of hepatic metabolism [1]: Moderate
DILI in vivo [2, 9]: POS
Classified as [2, 10]: POS
DILI in vivo [2, 11]: POS
Cmax [3, 12]: 0.0037 µM
2Dsw (Xu 2008) 100x [4, 13]: Negative
MPCC (Khetani 2013) 100x [5, 14]: Negative
Chemically defined spheroids (this study) 20x [6]: Negative

SMILES: O=C1CC2(CCCC2)CC(=O)N1CCCCN1CCN(c2ncccn2)CC1 [Buspirone]
2Dsw (Xu 2008) 100x [4, 13]: Negative
MPCC (Khetani 2013) 100x [5, 14]: Negative
Chemically defined spheroids (this study) 20x [6]: Negative
hepatotoxicity evaluation in CD-spheroids [6]: not hepatotoxic
Hanging-drop spheroids (Proctor 2017) 100x [7, 15]: Negative

Chemically defined spheroids (this study) 20x [6]: Positive
SMILES: O=C(O)Cc1ccccc1Nc1c(Cl)cccc1Cl [Diclofenac]
2Dsw (Xu 2008) 100x [4, 13]: Positive
MPCC (Khetani 2013) 100x [5, 14]: Positive
Hanging-drop spheroids (Proctor 2017) 100x [7, 15]: Positive

SMILES: CNCCC(Oc1ccc(C(F)(F)F)cc1)c1ccccc1 (stereo not drawn) [Fluoxetine]
Classified as ([2]; in vivo): NEG
Clinical DILI class (panel heading of Figure 4) ([2]; in vivo): DILI negative
DILI in vivo ([2]; in vivo): NEG
FDA (0-8) ([2]; in vivo): 3
Sakatis et al. (2012) ([2]; in vivo): non-hepatotixic
Suzuki et al. (2010) ([2]; in vivo): 2
Type of DILI ([2]; in vivo): Non-hepatotoxic
Xu et al. (2008) ([2]; in vivo): Negative
2Dsw (Xu 2008) 100x [4]: Negative
MPCC (Khetani 2013) 100x [5]: Negative
Chemically defined spheroids (this study) 20x [6]: Negative
hepatotoxicity classification in hanging-drop PHH spheroids ([7]; 100× cmax, 2 weeks, ref Proctor et al., 2017): flagged as hepatotoxic
Hanging-drop spheroids (Proctor 2017) 100x [7]: Positive

Chemically defined spheroids (this study) 20x [6]: Negative
SMILES: COC1=CC(=O)C[C@@H](C)[C@]12Oc1c(Cl)c(OC)cc(OC)c1C2=O [Griseofulvin]
viability at 14 days, 20 × cmax [8]: > 100%
Extent of hepatic metabolism [1]: Extensive
Cmax [3, 12]: 4.54 µM

SMILES: CN(C)CCCN1c2ccccc2CCc2ccccc21 [Imipramine]
Extent of hepatic metabolism [1]: Extensive
hepatotoxicity detection in 2D sandwich cultures of PHH [4]: liver toxicity was not recognized
2Dsw (Xu 2008) 100x [4, 13]: Negative
MPCC (Khetani 2013) 100x [5, 14]: Positive
Hanging-drop spheroids (Proctor 2017) 100x [7, 15]: Positive

SMILES: CC(CCc1ccccc1)NCC(O)c1ccc(O)c(C(N)=O)c1 (stereo not drawn) [Labetalol]
viability at 14 days, 20 × cmax [8]: > 100%
Extent of hepatic metabolism [1]: Extensive
Classified as ([2]; in vivo): POS
Clinical DILI class (panel heading of Figure 4) ([2]; in vivo): Severe DILI
DILI in vivo ([2]; in vivo): POS
FDA (0-8) ([2]; in vivo): 8
FDA (Severity) ([2]; in vivo): most DILI concern
O'Brien et al. (2003) ([2]; in vivo): Severely
Sakatis et al. (2012) ([2]; in vivo): Hepatotoxic
Suzuki et al. (2010) ([2]; in vivo): 3
Type of DILI ([2]; in vivo): Hepatocellular injury
Xu et al. (2008) ([2]; in vivo): Positive
Cmax [3, 12]: 2.68 µM
hepatotoxicity detection in 2D sandwich cultures of PHH [4]: flagged as hepatotoxic
2Dsw (Xu 2008) 100x [4, 13]: Positive
reactive oxygen species levels in 2D sandwich cultures of PHH [4]: only slight increases in reactive oxygen species levels
Chemically defined spheroids (this study) 20x [6]: Negative
hepatotoxicity evaluation in CD-spheroids [6]: predicted to be DILI negative

SMILES: CCN(CC)CC(=O)Nc1c(C)cccc1C [Lidocaine]
2Dsw (Xu 2008) 100x [4, 13]: Negative
MPCC (Khetani 2013) 100x [5, 14]: Positive

SMILES: Cc1cccc(Nc2ccccc2C(=O)O)c1C [Mefenamic Acid]
Extent of hepatic metabolism [1]: Extensive
Classified as ([2]; in vivo): POS
Clinical DILI class (panel heading of Figure 4) ([2]; in vivo): Severe DILI
DILI in vivo ([2]; in vivo): POS
FDA (0-8) ([2]; in vivo): 8
Sakatis et al. (2012) ([2]; in vivo): Hepatotoxic
Type of DILI ([2]; in vivo): Hepatocellular injury
Xu et al. (2008) ([2]; in vivo): Positive
Cmax [3, 12]: 26.9 µM
2Dsw (Xu 2008) 100x [4, 13]: Positive
MPCC (Khetani 2013) 100x [5, 14]: Positive
Chemically defined spheroids (this study) 20x [6]: Positive

SMILES: CNCCC=C1c2ccccc2CCc2ccccc21 [Nortriptyline]
Extent of hepatic metabolism [1]: Extensive
FDA (Severity) [2, 16]: most DILI concern
FDA (0-8) [2, 17]: 8
DILI in vivo [2, 9]: POS
Classified as [2, 10]: POS
DILI in vivo [2, 11]: POS
Xu et al. (2008) [2, 18]: Positive
Type of DILI [2, 19]: Hepatocellular injury
Cmax [3, 12]: 1.5 µM
2Dsw (Xu 2008) 100x [4, 13]: Negative
MPCC (Khetani 2013) 100x [5, 14]: Positive
Chemically defined spheroids (this study) 20x [6]: Positive

SMILES: CN1C(C(=O)Nc2ccccn2)=C(O)c2ccccc2S1(=O)=O [Piroxicam]
Extent of hepatic metabolism [1]: Extensive
Classified as ([2]; in vivo): POS
Clinical DILI class (panel heading of Figure 4) ([2]; in vivo): High DILI concern
DILI in vivo ([2]; in vivo): POS
FDA (0-8) ([2]; in vivo): 3
FDA (Severity) ([2]; in vivo): less DILI concern
Guo et al. (2005) ([2]; in vivo): 2
O'Brien et al. (2003) ([2]; in vivo): Severely
Sakatis et al. (2012) ([2]; in vivo): Hepatotoxic
Suzuki et al. (2010) ([2]; in vivo): 1
Type of DILI ([2]; in vivo): Hepatocellular injury, Cholestatic injury or Mixed hepatitis
Xu et al. (2008) ([2]; in vivo): Positive
Cmax [3, 12]: 5.13 µM
2Dsw (Xu 2008) 100x [4, 13]: Negative
MPCC (Khetani 2013) 100x [5, 14]: Negative
Chemically defined spheroids (this study) 20x [6]: Negative

SMILES: CC(=O)[C@H]1CC[C@H]2[C@@H]3CCC4=CC(=O)CC[C@]4(C)[C@H]3CC[C@]12C [Progesterone]
Classified as ([2]; in vivo): NEG
Clinical DILI class (panel heading of Figure 4) ([2]; in vivo): DILI negative
DILI in vivo ([2]; in vivo): NEG
FDA (0-8) ([2]; in vivo): 2
Sakatis et al. (2012) ([2]; in vivo): non-hepatotixic
Suzuki et al. (2010) ([2]; in vivo): 1
Type of DILI ([2]; in vivo): Non-hepatotoxic
Xu et al. (2008) ([2]; in vivo): Positive
Cmax [3, 12]: 0.193 µM
2Dsw (Xu 2008) 100x [4, 13]: Negative
MPCC (Khetani 2013) 100x [5, 14]: Negative
Chemically defined spheroids (this study) 20x [6]: Negative

Chemically defined spheroids (this study) 20x [6]: Positive
SMILES: C=C[C@H]1C[N@@]2CC[C@H]1C[C@H]2[C@H](O)c1ccnc2ccc(OC)cc12 [Quinine]
Cmax [3, 12]: 9.25 µM
2Dsw (Xu 2008) 100x [4]: Positive
MPCC (Khetani 2013) 100x [5]: Positive

SMILES: Cc1cn([C@H]2C=C[C@@H](CO)O2)c(=O)[nH]c1=O [Stavudine]
Extent of hepatic metabolism [1]: Minimal
Suzuki et al. (2010) ([2]; DILI classification score, ref Suzuki et al. (2010)): 2
FDA (Severity) [2, 16]: most DILI concern
FDA (0-8) [2, 17]: 8
DILI in vivo [2, 9]: POS
Classified as [2, 10]: POS
DILI in vivo [2, 11]: POS
Xu et al. (2008) [2, 18]: Positive
O'Brien et al. (2003) ([2]; clinical hepatotoxicity classification, ref O'Brien et al. (2003)): Severely
Sakatis et al. (2012) ([2]; clinical hepatotoxicity classification, ref Sakatis et al. (2012)): Hepatotoxic
Type of DILI [2, 19]: Cholestatic injury or Mixed hepatitis
Cmax [3, 12]: 3.46 µM
2Dsw (Xu 2008) 100x [4, 13]: Negative
Chemically defined spheroids (this study) 20x [6]: Negative
Hanging-drop spheroids (Proctor 2017) 100x [7, 15]: Negative

Chemically defined spheroids (this study) 20x [6]: Negative
SMILES: Nc1c2c(nc3ccccc13)CCCC2 [Tacrine]
viability at 14 days, 20 × cmax [8]: > 100%
Classified as ([2]; in vivo): POS
Clinical DILI class (panel heading of Figure 4) ([2]; in vivo): High DILI concern
DILI in vivo ([2]; in vivo): POS
Type of DILI ([2]; in vivo): Hepatocellular injury
Cmax ([3]; human, in vivo): 0.07 µM
2Dsw (Xu 2008) 100x [4]: Negative
Hanging-drop spheroids (Proctor 2017) 100x [7]: Negative

SMILES: O=c1n(CCCN2CCN(c3cccc(Cl)c3)CC2)nc2ccccn12 [Trazodone]
Extent of hepatic metabolism [1]: Extensive
Classified as ([2]; in vivo): POS
Clinical DILI class (panel heading of Figure 4) ([2]; in vivo): High DILI concern
DILI in vivo ([2]; in vivo): POS
FDA (0-8) ([2]; in vivo): 5
FDA (Severity) ([2]; in vivo): less DILI concern
Type of DILI ([2]; in vivo): Hepatocellular injury, Cholestatic injury or Mixed hepatitis
Xu et al. (2008) ([2]; in vivo): Positive
Cmax [3, 12]: 5.1 µM
2Dsw (Xu 2008) 100x [4, 13]: Positive
MPCC (Khetani 2013) 100x [5, 14]: Positive
Chemically defined spheroids (this study) 20x [6]: Positive

SMILES: CC(c1cc2ccccc2s1)N(O)C(N)=O (stereo not drawn) [Zileuton]
Extent of hepatic metabolism [1]: Extensive
Classified as ([2]; in vivo): POS
Clinical DILI class (panel heading of Figure 4) ([2]; in vivo): High DILI concern
DILI in vivo ([2]; in vivo): POS
FDA (0-8) ([2]; in vivo): 5
FDA (Severity) ([2]; in vivo): most DILI concern
O'Brien et al. (2003) ([2]; in vivo): Severely
Sakatis et al. (2012) ([2]; in vivo): Hepatotoxic
Type of DILI ([2]; in vivo): Hepatocellular injury
Xu et al. (2008) ([2]; in vivo): Positive
Cmax [3, 12]: 13.1 µM
hepatotoxicity detection in 2D sandwich cultures of PHH [4]: flagged as hepatotoxic
2Dsw (Xu 2008) 100x [4, 13]: Positive
reactive oxygen species levels in 2D sandwich cultures of PHH [4]: only slight increases in reactive oxygen species levels
Chemically defined spheroids (this study) 20x [6]: Negative
hepatotoxicity evaluation in CD-spheroids [6]: predicted to be DILI negative
Hanging-drop spheroids (Proctor 2017) 100x [7, 15]: Negative
